Earlier results, collected in publication PMC4123439 (Bioorganic & medicinal chemistry, 2009).

Tested on: Tdp1
Details: at concentrations of up to 1 mM

For COS(=O)(=O)c1ccc(C)cc1 [methyl p-toluene sulfonate], the Tdp1 inhibitory activity is listed as “inactive”.
